Source: patent US20040092548A1, “OPHTHALMIC TREATMENT” (priority 1995, published 2004)
Structures can show the parent of a compound that is named as a salt.

Experiments:
[1] = system: white New Zealand rabbits; experiment: Mydriatic response (pupil dilation, RRmax) after ocular dosing of ephedrine hydrochloride; format: in vivo; details: 5 μl of 5% solution (250 μg) as droplet stream compared with 5 μl 5% and 25 μl 1% instillates (250 μg each); rabbit
Protocol: Six white New Zealand rabbits were administered with the following dosage regimen:
I→25 μl of 1% aqueous ephedrine hydrochloride solution (250 μg) via pipette (instillate)
II→5 μl of 5% aqueous ephedrine hydrochloride solution (250 μg) via pipette (instillate)
III→5 μl of 5% aqueous ephedrine hydrochloride solution (250 μg) in a jet/stream of droplets of diameter in the range 200 to 400 μm.
Pupil diameter measurements were determined from photographs acquired using a Pentax ME super 35 mm camera fitted with a SMC Pentax 50 mm lens and a 2x converter. An aperture setting of 12, and a shutter speed of 1/15 was employed with a film speed of ISO 400 (Kodak Gold 400). The camera was held stationary on a tripod and positioned approximately 30-40 cm from the rabbits eye. Prior to each dosing period the animals were acclimatised to experimental conditions (constant light intensity, minimal distractions) for 20 min. The rabbits were placed in restraining boxes and settled before photographs and baseline pupil diameters were determined 5 min prior to dosing.
Pupillary diameters were determined from the developed colour prints (6×4) using an electronic micrometer (Digimatic Caliper, Mitutoyo Corp., Japan). […] The maximum response ratio (RRmax) for pupil dilation was then calculated from the photographs using the following relationship: […]

[2] = system: white New Zealand rabbits; experiment: Miotic response (pupil diameter) after ocular dosing of pilocarpine hydrochloride, randomised cross-over study; format: in vivo; details: rabbit; for AUC (0-4 hours), area under the pupillary diameter vs. time curve / RR max: ± SD
Protocol: Ten white New Zealand rabbits were treated with the following dosage regimen in a randomised cross-over study:
30 μl of 1% aqueous pilocarpine hydrochloride solution (300 μg) was instilled via pipette into the conjunctival sac 5 μl of 1% aqueous pilocarpine hydrochloride solution (50 μg) was applied as a jet and/or stream of droplets (with a diameter in the range of 200 μm to 400 μm) to the surface of the cornea.
In order to determine pupil diameters, a metallic rule with a circular aperture of known diameter was orientated perpendicular to, and at an appropriate fixed distance from, a video camera fitted with a macro lens (Sony V8 Pro-CDD-V100E) throughout the study. During miotic measurements, the animals were positioned such that the left eye was parallel to the ruler and equidistant from the video camera. The video camera was actuated to project and amplify images of both the reference aperture and left eye onto the monitor screen. The diameters of both the reference aperture and pupil were then measured on the screen using a ruler placed on the projected image at an angle of approximately […]. The value of the pupil diameter was then calculated by multiplying the projected screen pupil diameter by the ratio of the actual reference diameter (8 mm) to the projected screen reference diameter (18 mm).
Pupil measurements were taken at approximately 60, 45, 30 and 15 minute intervals prior to administration of the treatments to provide a baseline value, and then at 15 minute intervals for the first hour after dosing. Thereafter, the pupil diameter was measured at 30 minute intervals for a minimum duration of 4 hours after dose administration.
For the purpose of statistical analysis of variants between treatments, the following parameters were determined: RR max=(pupil diameter at time t−pupil diameter at time 0)/pupil diameter at time 0; T max=the first time point at which the smallest pupillary diameter was observed; and AUC (0-4 hours)=the area under the pupillary diameter vs. time curve between 0 and 4 hours after treatment.
All significance tests were two-tailed and were performed at the 5% significance level. The statistical software SAS V607 and the PROC GLM procedure were used in the analysis.

[3] = Ocular distribution study of tritiated propranolol hydrochloride; format: in vivo, rabbit
Protocol: 40 μl of 0.5% aqueous tritiated propranolol hydrochloride solution (200 μg) was administered via pipette into the conjunctival sac of twelve New Zealand white rabbit eyes. Seperately, 5 μl of 4% aqueous tritiated propranolol hydrochloride solution (200 μg) was applied as a jet or stream of droplets (with a diameter in the range of 200 μm to 400 μm) to the surface (cornea and/or conjunctiva) of twelve different New Zealand white rabbit eyes
Following each treatment, four eyes were ennucleated after 15 minutes, four after 30 minutes and the remaining four after 60 minutes. In each case, the animals were humanely killed prior to the ocular ennucleation procedure via an overdose of sodium pentobarbitol injected into a marginal ear vein. Each eye was then irrigated by instilling 100 μl of normal saline into the conjunctival sac using an automatic pipette and immediately blotting away excess saline with paper tissue to remove any radioactivity in the tear film. Following ennucleation and removal of the adnexal tissue, the cornea was washed with a second 100 μl of normal saline. The aqueous humor was then quickly removed by paracentesis with a 1 ml syringe and 26G needle. To this was then added an equal volume of trichloroacetic acid (TCA) solution (10% w/v) to bring the final concentration to 5% w/v TCA. Both eyes were then dissected from the posterior pole to allow removal of the vitreous humor and the lens, whilst the iris-cilary body was transferred to a tared sample tube. The cornea was then removed using a 12 mm trephine, and the limbal cornea and conjunctiva (with underlying sclera) cut free into a strip approximately 5 mm wide using a scalpel and scissors. Each sample was then weighed in a tared sample tube and at least 5 volumes of TCA (6% w/v) added. All tissue samples were subjected to sonication for 5 minutes, then centrifuged at 10 000 g.min. to yield a supernatent. Each supernatent was then extracted 3 times with 3 volumes of ether and, after evaporation of residual solvent, the aqueous residue was sampled and added to 5 ml of FluoronSafe XE “Scintron” scintillation fluid (BDH Chemicals, UK). Radioactivity was then determined by counting in a Packard 1600DR beta-scintillation counter. Data gathered as counts per minute was then converted into disintegrations per minute (dpm), using external standardisation, and expressed as dpm […] after adjusting for the total radioactivity in each dose. Due to the small number of samples per time point per treatment, statistical analysis was not considered appropriate for this study.
The results of this study are summarised for the different ocular tissues in tables 1 to 4 below, where the values shown represent dpm (disintegrations per minute) per mg of tissue.

[4] = cited from earlier work
[5] = 1% 5 μl jet and/or stream of droplets (50 μg) to cornea
[6] = 1% 30 μl large eyedrop (300 μg) instilled into conjunctival sac
[7] = 0.5% 40 μl large eyedrop (200 μg), 15 mins
[8] = 0.5% 40 μl large eyedrop (200 μg), 30 mins
[9] = 0.5% 40 μl large eyedrop (200 μg), 60 mins
[10] = 4.0% 5 μl jet and/or stream of droplets (200 μg), 15 mins
[11] = 4.0% 5 μl jet and/or stream of droplets (200 μg), 30 mins
[12] = 4.0% 5 μl jet and/or stream of droplets (200 μg), 60 mins
[13] = 5 μl eye drop loaded with 26.1 μg

SMILES: CN[C@@H](C)[C@H](O)c1ccccc1 [Ephedrine, ephedrine hydrochloride]
- Mydriatic response (RRmax vs time, FIG. 1) [1]: more pronounced and maintained over a longer duration compared to both instillates

SMILES: CC[C@@H]1C(=O)OC[C@@H]1Cc1cncn1C [Pilocarpine, pilocarpine hydrochloride]
- AUC (0-4 hours), area under the pupillary diameter vs. time curve [2, 5]: 3827 ± 312 mmMin.
- RR max [2, 5]: 12.3 ± 5.2 %
- AUC (0-4 hours), area under the pupillary diameter vs. time curve [2, 6]: 3871 ± 340 mmMin.
- RR max [2, 6]: 15.2 ± 4.0 %
- Pupil diameter after administration ([2]; both dose forms (30 μl eyedrop 300 μg; 5 μl jet 50 μg), after 15 minutes): reduction in pupil diameter was evident
- Time after treatment at which the miotic effect started to disappear ([2]; both dose forms): 60 to 90 min
- Time after which pupil measurements had fully recovered to predose levels ([2]; both dose forms): 120 min

SMILES: CC(C)NCC(O)COc1cccc2ccccc12 (centres unmarked) [Propranolol, propranolol hydrochloride]
- Radioactivity in aqueous humor [3, 7]: 1310 dpm per mg of tissue
- Radioactivity in conjunctiva/sclera [3, 7]: 2569 dpm per mg of tissue
- Radioactivity in cornea [3, 7]: 5579 dpm per mg of tissue
- Radioactivity in iris-cilary body [3, 7]: 942 dpm per mg of tissue
- Radioactivity in aqueous humor [3, 8]: 960 dpm per mg of tissue
- Radioactivity in conjunctiva/sclera [3, 8]: 2838 dpm per mg of tissue
- Radioactivity in cornea [3, 8]: 3467 dpm per mg of tissue
- Radioactivity in iris-cilary body [3, 8]: 1033 dpm per mg of tissue
- Radioactivity in aqueous humor [3, 9]: 705 dpm per mg of tissue
- Radioactivity in conjunctiva/sclera [3, 9]: 1380 dpm per mg of tissue
- Radioactivity in cornea [3, 9]: 2945 dpm per mg of tissue
- Radioactivity in iris-cilary body [3, 9]: 799 dpm per mg of tissue
- Radioactivity in aqueous humor [3, 10]: 1845 dpm per mg of tissue
- Radioactivity in conjunctiva/sclera [3, 10]: 5286 dpm per mg of tissue
- Radioactivity in cornea [3, 10]: 5241 dpm per mg of tissue
- Radioactivity in iris-cilary body [3, 10]: 2256 dpm per mg of tissue
- Radioactivity in aqueous humor [3, 11]: 1176 dpm per mg of tissue
- Radioactivity in conjunctiva/sclera [3, 11]: 2259 dpm per mg of tissue
- Radioactivity in cornea [3, 11]: 3766 dpm per mg of tissue
- Radioactivity in iris-cilary body [3, 11]: 1482 dpm per mg of tissue
- Radioactivity in aqueous humor [3, 12]: 607 dpm per mg of tissue
- Radioactivity in conjunctiva/sclera [3, 12]: 1673 dpm per mg of tissue
- Radioactivity in cornea [3, 12]: 1861 dpm per mg of tissue
- Radioactivity in iris-cilary body [3, 12]: 586 dpm per mg of tissue
- Level reaching the iris-ciliary body from jet and/or stream of droplets relative to eyedrop ([3]; 15 minute time point, 200 μg each): more than double
- Radioactivity in ocular tissues ([3]; all ocular tissues, all time points, both treatments): Significant radioactivity was detected

SMILES: CC[C@@H]1C(=O)OC[C@@H]1Cc1cncn1C [pilocarpine nitrate]
- Drug available for potential systemic absorption [4, 13]: 25.7 µg
- Fraction of drug absorbed into the eye [4, 13]: 0.41 µg
- Drug left to be absorbed systemically ([4]; 25 μl drop loaded with 67.8 μg): 67.4 µg
- Drug penetrated the eye ([4]; 25 μl drop loaded with 67.8 μg): 0.36 µg
